Reference: patent publication US20230406885A1, “CYCLIC PEPTIDES FOR TRAPPING INTERLEUKIN-1 BETA” (MERCK SHARP & DOHME LLC, priority 2022, published 2023)
pIC50: −log10 of the molar value. *1 amine or outer side, *2 acyl side, *3 side chain or, on linkers, in order; H or OH if unused. Where a SMILES comes first, the peptide text is derived from it. [ ]: non-standard residue; d: D form. Phe(4-(trans-4-COOH-cHex)) = N[C@@H](Cc1ccc([C@H]2CC[C@H](C(=O)O)CC2)cc1)C(=O)O; Phe(4-(4-Ac-piperazinyl)) = CC(=O)N1CCN(c2ccc(C[C@H](N)C(=O)O)cc2)CC1; Bip(4'-COOH) = N[C@@H](Cc1ccc(-c2ccc(C(=O)O)cc2)cc1)C(=O)O; 1Nal(3S-Me) = C[C@@H](c1cccc2ccccc12)[C@H](N)C(=O)O; Ala(indolin-1-yl) = N[C@@H](CN1CCc2ccccc21)C(=O)O; Phe(4-COOH) = N[C@@H](Cc1ccc(C(=O)O)cc1)C(=O)O; dαMeDab = C[C@](CCN[*:3])(N[*:1])C(=O)[*:2]; h3Pal(5-CN) = N#Cc1cncc(CC[C@H](N)C(=O)O)c1; Pro(4R-NH2) = N[C@H]1CN[C@H](C(=O)O)C1; hTyr = N[C@@H](CCc1ccc(O)cc1)C(=O)O; X9 = CCCC[C@](C)(N[*:1])C(=O)[*:2]; hCha = N[C@@H](CCC1CCCCC1)C(=O)O; 4Pal = N[C@@H](Cc1ccncc1)C(=O)O; Cha = N[C@@H](CC1CCCCC1)C(=O)O; dDab = NCC[C@@H](N)C(=O)O; Nle = CCCC[C@H](N)C(=O)O; Orn = NCCC[C@H](N)C(=O)O; dDap = NC[C@@H](N)C(=O)O; dNMeA = CN[C@H](C)C(=O)O; Dab = NCC[C@H](N)C(=O)O; Dap = NC[C@H](N)C(=O)O

target: T1, Recombinant human IL-1β (Homo sapiens, UniProt P01584); experiment: IL-6 assay in MRC5 cells: inhibition of IL-1β induced IL-6 secretion (AlphaLISA); assay type: cell-based; conditions: inhibition of IL-1β induced IL-6 secretion in MRC5 cells; read-out: MRC5 IC50
T1 construct: purchased BioLegend 579404
T1 sequence (P01584 117-269): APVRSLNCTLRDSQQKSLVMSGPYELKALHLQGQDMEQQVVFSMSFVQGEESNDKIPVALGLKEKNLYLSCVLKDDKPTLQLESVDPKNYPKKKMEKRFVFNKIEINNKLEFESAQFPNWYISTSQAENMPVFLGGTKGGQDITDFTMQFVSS
In short: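 IL-1β at 2×EC80 in seeding medium (EMEM, 0.025% BSA) preincubated 1 h at ambient temperature with compound, then 3000 MRC5 cells/well added and incubated overnight at 37 °C, 5% CO2. IL-6 in conditioned medium quantified by AlphaLISA; IC50 from 4-parameter logistic fit.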

SMILES | pIC50
CCCC[C@@H]1NC(=O)[C@@H](CCN)NC(=O)CNC(=O)[C@H](Cc2ccncc2)NC(=O)[C@H](Cc2ccc(-c3ccc(C(=O)O)cc3)cc2)NC(=O)CNC(=O)[C@@H](C)N(C)C(=O)[C@H](CC(=O)O)NC(=O)[C@H]([C@@H](C)c2cccc3ccccc23)NC(=O)[C@@H]2C[C@@H](N)CN2C(=O)CNC(=O)[C@H](Cc2ccc(C(=O)O)cc2)NC(=O)[C@H](Cc2c[nH]c3ccccc23)NC(=O)[C@H](Cc2ccc([C@H]3CC[C@H](C(=O)O)CC3)cc2)NC1=O [Example 197] (cyclo([Phe(4-(trans-4-COOH-cHex))]W[Phe(4-COOH)]G[Pro(4R-NH2)][1Nal(3S-Me)]D[dNMeA]G[Bip(4'-COOH)][4Pal]G[dDab][Nle])) | 10.62
CC(=O)N1CCN(c2ccc(C[C@@H]3NC(=O)[C@H](CCc4ccc(O)cc4)NC(=O)[C@@H](CCN)NC(=O)CNC(=O)[C@H](CN4CCc5ccccc54)NC(=O)[C@H](Cc4ccc(-c5ccc(C(=O)O)cc5)cc4)NC(=O)CNC(=O)[C@@H](C)N(C)C(=O)[C@H](CC(=O)O)NC(=O)[C@H]([C@@H](C)c4cccc5ccccc45)NC(=O)[C@@H]4C[C@@H](N)CN4C(=O)CNC(=O)[C@H](Cc4ccc(C(=O)O)cc4)NC(=O)[C@H](Cc4c[nH]c5ccccc45)NC3=O)cc2)CC1 [Example 198] (cyclo([Phe(4-(4-Ac-piperazinyl))]W[Phe(4-COOH)]G[Pro(4R-NH2)][1Nal(3S-Me)]D[dNMeA]G[Bip(4'-COOH)][Ala(indolin-1-yl)]G[dDab][hTyr])) | 10.68
CC(=O)N1CCN(c2ccc(C[C@@H]3NC(=O)[C@H](CCC4CCCCC4)NC(=O)[C@@](C)(CCN)NC(=O)CNC(=O)[C@H](Cc4ccncc4)NC(=O)[C@H](Cc4ccc(-c5ccc(C(=O)O)cc5)cc4)NC(=O)CNC(=O)[C@@H](C)N(C)C(=O)[C@H](CC(=O)O)NC(=O)[C@H]([C@@H](C)c4cccc5ccccc45)NC(=O)[C@@H]4C[C@@H](N)CN4C(=O)CNC(=O)[C@H](Cc4ccc(C(=O)O)cc4)NC(=O)[C@H](Cc4c[nH]c5ccccc45)NC3=O)cc2)CC1 [Example 199] (cyclo([Phe(4-(4-Ac-piperazinyl))]W[Phe(4-COOH)]G[Pro(4R-NH2)][1Nal(3S-Me)]D[dNMeA]G[Bip(4'-COOH)][4Pal]G[dαMeDab][hCha])) | 10.62
CCCC[C@]1(C)NC(=O)[C@@H](CCN)NC(=O)CNC(=O)[C@H](Cc2ccncc2)NC(=O)[C@H](Cc2ccc(-c3ccc(C(=O)O)cc3)cc2)NC(=O)CNC(=O)[C@@H](C)N(C)C(=O)[C@H](CC(=O)O)NC(=O)[C@H]([C@@H](C)c2cccc3ccccc23)NC(=O)[C@@H]2C[C@@H](N)CN2C(=O)CNC(=O)[C@H](Cc2ccc(C(=O)O)cc2)NC(=O)[C@H](Cc2c[nH]c3ccccc23)NC(=O)[C@H](Cc2ccc(N3CCN(C(C)=O)CC3)cc2)NC1=O [Example 200] (cyclo([Phe(4-(4-Ac-piperazinyl))]W[Phe(4-COOH)]G[Pro(4R-NH2)][1Nal(3S-Me)]D[dNMeA]G[Bip(4'-COOH)][4Pal]G[dDab][X9])) | 10.47
CC(=O)N1CCN(c2ccc(C[C@@H]3NC(=O)[C@H](CCC4CCCCC4)NC(=O)[C@@H](CCN)NC(=O)CNC(=O)[C@H](Cc4ccncc4)NC(=O)[C@H](Cc4ccc(-c5ccc(C(=O)O)cc5)cc4)NC(=O)CNC(=O)[C@@H](C)N(C)C(=O)[C@H](CC(=O)O)NC(=O)[C@H]([C@@H](C)c4cccc5ccccc45)NC(=O)[C@@H]4C[C@@H](N)CN4C(=O)CNC(=O)[C@H](Cc4ccc(C(=O)O)cc4)NC(=O)[C@H](Cc4c[nH]c5ccccc45)NC3=O)cc2)CC1 [Example 201] (cyclo([Phe(4-(4-Ac-piperazinyl))]W[Phe(4-COOH)]G[Pro(4R-NH2)][1Nal(3S-Me)]D[dNMeA]G[Bip(4'-COOH)][4Pal]G[dDab][hCha])) | 10.52
CC(=O)N1CCN(c2ccc(C[C@@H]3NC(=O)[C@H](CCc4ccc(O)cc4)NC(=O)[C@@H](CCN)NC(=O)CNC(=O)[C@H](CC4CCCCC4)NC(=O)[C@H](Cc4ccc(-c5ccc(C(=O)O)cc5)cc4)NC(=O)CNC(=O)[C@@H](C)N(C)C(=O)[C@H](CC(=O)O)NC(=O)[C@H]([C@@H](C)c4cccc5ccccc45)NC(=O)[C@@H]4C[C@@H](N)CN4C(=O)CNC(=O)[C@H](Cc4ccc(C(=O)O)cc4)NC(=O)[C@H](Cc4c[nH]c5ccccc45)NC3=O)cc2)CC1 [Example 202] (cyclo([Phe(4-(4-Ac-piperazinyl))]W[Phe(4-COOH)]G[Pro(4R-NH2)][1Nal(3S-Me)]D[dNMeA]G[Bip(4'-COOH)][Cha]G[dDab][hTyr])) | 10.54
CC(=O)N1CCN(c2ccc(C[C@@H]3NC(=O)[C@H](CCC4CCCCC4)NC(=O)[C@@H](C)NC(=O)[C@H](CC(C)C)NC(=O)[C@H](CCN)NC(=O)[C@H](Cc4ccc(-c5ccc(C(=O)O)cc5)cc4)NC(=O)CNC(=O)[C@@H](C)N(C)C(=O)[C@H](CC(=O)O)NC(=O)[C@H]([C@@H](C)c4cccc5ccccc45)NC(=O)[C@@H]4C[C@@H](N)CN4C(=O)CNC(=O)[C@H](Cc4ccc(C(=O)O)cc4)NC(=O)[C@H](Cc4c[nH]c5ccccc45)NC3=O)cc2)CC1 [Example 203] (cyclo([Phe(4-(4-Ac-piperazinyl))]W[Phe(4-COOH)]G[Pro(4R-NH2)][1Nal(3S-Me)]D[dNMeA]G[Bip(4'-COOH)][Dab]L[dA][hCha])) | 10.92
CC(=O)NC[C@@H]1NC(=O)[C@H](Cc2ccc(-c3ccc(C(=O)O)cc3)cc2)NC(=O)CNC(=O)[C@@H](C)N(C)C(=O)[C@H](CC(=O)O)NC(=O)[C@H]([C@@H](C)c2cccc3ccccc23)NC(=O)[C@@H]2C[C@@H](N)CN2C(=O)CNC(=O)[C@H](Cc2ccc(C(=O)O)cc2)NC(=O)[C@H](Cc2c[nH]c3ccccc23)NC(=O)[C@H](Cc2ccc(N3CCN(C(C)=O)CC3)cc2)NC(=O)[C@H](CCc2cncc(C#N)c2)NC(=O)[C@@H](C)NC(=O)[C@H](CCCCN)NC1=O [Example 204] (cyclo([Phe(4-(4-Ac-piperazinyl))]W[Phe(4-COOH)]G[Pro(4R-NH2)][1Nal(3S-Me)]D[dNMeA]G[Bip(4'-COOH)][Dap](Ac)K[dA][h3Pal(5-CN)])) | 11.05
CC(=O)NC[C@@H]1NC(=O)[C@H](Cc2ccc(-c3ccc(C(=O)O)cc3)cc2)NC(=O)CNC(=O)[C@@H](C)N(C)C(=O)[C@H](CC(=O)O)NC(=O)[C@H]([C@@H](C)c2cccc3ccccc23)NC(=O)[C@@H]2C[C@@H](N)CN2C(=O)CNC(=O)[C@H](Cc2ccc(C(=O)O)cc2)NC(=O)[C@H](Cc2c[nH]c3ccccc23)NC(=O)[C@H](Cc2ccc(N3CCN(C(C)=O)CC3)cc2)NC(=O)[C@H](CCc2cncc(C#N)c2)NC(=O)[C@@H](CN)NC(=O)[C@H](CC(C)C)NC1=O [Example 205] (cyclo([Phe(4-(4-Ac-piperazinyl))]W[Phe(4-COOH)]G[Pro(4R-NH2)][1Nal(3S-Me)]D[dNMeA]G[Bip(4'-COOH)][Dap](Ac)L[dDap][h3Pal(5-CN)])) | 11.00
CC(=O)N1CCN(c2ccc(C[C@@H]3NC(=O)[C@H](CCC4CCCCC4)NC(=O)[C@@H](C)NC(=O)[C@H](CC(C)C)NC(=O)[C@H](CN)NC(=O)[C@H](Cc4ccc(-c5ccc(C(=O)O)cc5)cc4)NC(=O)CNC(=O)[C@@H](C)N(C)C(=O)[C@H](CC(=O)O)NC(=O)[C@H]([C@@H](C)c4cccc5ccccc45)NC(=O)[C@@H]4C[C@@H](N)CN4C(=O)CNC(=O)[C@H](Cc4ccc(C(=O)O)cc4)NC(=O)[C@H](Cc4c[nH]c5ccccc45)NC3=O)cc2)CC1 [Example 206] (cyclo([Phe(4-(4-Ac-piperazinyl))]W[Phe(4-COOH)]G[Pro(4R-NH2)][1Nal(3S-Me)]D[dNMeA]G[Bip(4'-COOH)][Dap]L[dA][hCha])) | 10.82
CC(=O)N1CCN(c2ccc(C[C@@H]3NC(=O)[C@H](CCC4CCCCC4)NC(=O)[C@@H](C)NC(=O)[C@H](CC(C)C)NC(=O)[C@H](CCCCN)NC(=O)[C@H](Cc4ccc(-c5ccc(C(=O)O)cc5)cc4)NC(=O)CNC(=O)[C@@H](C)N(C)C(=O)[C@H](CC(=O)O)NC(=O)[C@H]([C@@H](C)c4cccc5ccccc45)NC(=O)[C@@H]4C[C@@H](N)CN4C(=O)CNC(=O)[C@H](Cc4ccc(C(=O)O)cc4)NC(=O)[C@H](Cc4c[nH]c5ccccc45)NC3=O)cc2)CC1 [Example 207] (cyclo([Phe(4-(4-Ac-piperazinyl))]W[Phe(4-COOH)]G[Pro(4R-NH2)][1Nal(3S-Me)]D[dNMeA]G[Bip(4'-COOH)]KL[dA][hCha])) | 10.96
CC(=O)NCCCC[C@@H]1NC(=O)[C@H](Cc2ccc(-c3ccc(C(=O)O)cc3)cc2)NC(=O)CNC(=O)[C@@H](C)N(C)C(=O)[C@H](CC(=O)O)NC(=O)[C@H]([C@@H](C)c2cccc3ccccc23)NC(=O)[C@@H]2C[C@@H](N)CN2C(=O)CNC(=O)[C@H](Cc2ccc(C(=O)O)cc2)NC(=O)[C@H](Cc2c[nH]c3ccccc23)NC(=O)[C@H](Cc2ccc(N3CCN(C(C)=O)CC3)cc2)NC(=O)[C@H](CCc2cncc(C#N)c2)NC(=O)[C@@H](C)NC(=O)[C@H](CC(C)C)NC1=O [Example 208] (cyclo([Phe(4-(4-Ac-piperazinyl))]W[Phe(4-COOH)]G[Pro(4R-NH2)][1Nal(3S-Me)]D[dNMeA]G[Bip(4'-COOH)]K(Ac)L[dA][h3Pal(5-CN)])) | 10.74
CC(=O)N1CCN(c2ccc(C[C@@H]3NC(=O)[C@H](CCC4CCCCC4)NC(=O)[C@@H](C)NC(=O)[C@H](CC(C)C)NC(=O)[C@H](CCCN)NC(=O)[C@H](Cc4ccc(-c5ccc(C(=O)O)cc5)cc4)NC(=O)CNC(=O)[C@@H](C)N(C)C(=O)[C@H](CC(=O)O)NC(=O)[C@H]([C@@H](C)c4cccc5ccccc45)NC(=O)[C@@H]4C[C@@H](N)CN4C(=O)CNC(=O)[C@H](Cc4ccc(C(=O)O)cc4)NC(=O)[C@H](Cc4c[nH]c5ccccc45)NC3=O)cc2)CC1 [Example 209] (cyclo([Phe(4-(4-Ac-piperazinyl))]W[Phe(4-COOH)]G[Pro(4R-NH2)][1Nal(3S-Me)]D[dNMeA]G[Bip(4'-COOH)][Orn]L[dA][hCha])) | 11.05
